Literature values, collected in patent US20210121515A1, “COMPOSITION FOR USE IN THE PREVENTION AND/OR TREATMENT OF OSTEOARTICULAR DISEASES” (NEILOS S.R.L., priority 2018, published 2021).

Tests used:
[1] = system: carrageenan edema and pleurisy; details: doses of 1 mg/kg; comparable to 5 mg/kg of indomethacin
mPGES-1 = biological target: T1, mPGES-1 (Homo sapiens, UniProt O14684); details: intact A549 cell assays
T1 construct: with an IC50 of 10 μM in intact A549 cell assays; endogenous in cells; host or cells: A549
T1 sequence (O14684 1-152): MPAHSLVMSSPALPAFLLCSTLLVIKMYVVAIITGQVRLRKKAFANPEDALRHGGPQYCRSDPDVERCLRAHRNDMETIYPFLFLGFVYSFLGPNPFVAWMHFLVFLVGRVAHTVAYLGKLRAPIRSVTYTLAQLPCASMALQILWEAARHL

[2] = system: NF-κB, COX-2, superoxide dismutase; details: rats

| SMILES | activity in acute inflammation models [1] | IC50 (mPGES-1) [µM] | levels of COX-2 [2] | levels of NF-κB [2] | levels of superoxide dismutase [2] |
| --- | --- | --- | --- | --- | --- |
| C[C@H]1[C@H](C)CC[C@]2(C)CC[C@]3(C)C(=CC[C@@H]4[C@@]5(C)CC[C@@H](O)[C@](C)(C(=O)O)[C@@H]5CC[C@]43C)[C@H]12 [β-boswellic acid] | good activity | 10 | – | – | – |
| O=C(O)[C@H]1O[C@@H](Oc2cc3oc(-c4ccccc4)cc(=O)c3c(O)c2O)[C@H](O)[C@@H](O)[C@@H]1O [baicalin] | – | – | reduce | reduce | increasing |
